In patent US20070128217A1 (priority 2003, published 2007):

Tests used:
[1] = tested on: antibodies in sera from SARS patients (sera 1a, 1b, 2, 6, 37, 62, London, SARS-yellow, SARS-green); format: binding, human; set-up: Binding of serum 6 to linear peptides of protein X1 of SARS-CoV Urbani / Binding of serum 37 to linear peptides of protein X1 of SARS-CoV Urbani / Binding of serum 6 to looped/cyclic peptide (PEPSCAN-ELISA) / Binding of serum 37 to looped/cyclic peptide (PEPSCAN-ELISA) / Binding of serum 37 to looped/cyclic peptides of protein X1 of SARS-CoV Urbani / Binding of serum 6 to linear peptides of protein X2 / Binding of serum 37 to linear peptides of protein X2 / Binding of serum 37 to looped/cyclic peptides of protein X2 of SARS-CoV Urbani / Binding of serum 6 to linear peptides of protein M of SARS-CoV Urbani / Binding of serum 37 to linear peptides of protein M of SARS-CoV Urbani / Binding of serum 6 to looped/cyclic peptides of protein M of SARS-CoV Urbani / Binding of serum 37 to looped/cyclic peptides of protein M of SARS-CoV Urbani / Binding of serum 6 to linear peptides of protein X3 of SARS-CoV Urbani / Binding of serum 37 to linear peptides of protein X3 of SARS-CoV Urbani / Binding of serum 37 to looped/cyclic peptides of protein X3 of SARS-CoV Urbani / Binding of serum 6 to linear peptides of protein X4 of SARS-CoV Urbani / Binding of serum 37 to linear peptides of protein X4 of SARS-CoV Urbani / Binding of serum 37 to looped/cyclic peptides of protein X4 of SARS-CoV Urbani / Binding of serum 6 to linear peptides of protein X5 of SARS-CoV Urbani / Binding of serum 37 to linear peptides of protein X5 of SARS-CoV Urbani / Binding of serum 37 to looped/cyclic peptides of protein X5 of SARS-CoV Urbani / Binding of serum 6 to linear peptides of protein N of SARS-CoV Urbani / Binding of serum 37 to linear peptides of protein N of SARS-CoV Urbani / Binding of serum 6 to linear peptide (PEPSCAN-ELISA) / Binding of serum 1a to looped/cyclic peptides of protein N of SARS-CoV Urbani / Binding of serum 1b to looped/cyclic peptides of protein N of SARS-CoV Urbani / Binding of serum 2 to looped/cyclic peptides of protein N of SARS-CoV Urbani / Binding of serum 6 to looped/cyclic peptides of protein N of SARS-CoV Urbani / Binding of serum 37 to looped/cyclic peptides of protein N of SARS-CoV Urbani / Binding of serum 62 to looped/cyclic peptides of protein N of SARS-CoV Urbani / Binding of serum London to looped/cyclic peptides of protein N of SARS-CoV Urbani / Binding of serum SARS-green to looped/cyclic peptides of protein N of SARS-CoV Urbani: unit not given here
[2] = tested on: control sera (pooled serum of ten healthy LUMC hospital workers; commercial negative donor pooled serum from the Dutch bloodbank); format: binding, human; set-up: Binding of Control serum LUMC to linear peptides / Binding of Control serum Blood-bank to linear peptides / Binding of Control serum LUMC to looped peptides / Binding of Control Serum Blood-Bank to Looped peptides / Binding of Control serum LUMC to linear peptides of the protein M of SARS-CoV Urbani / Binding of Control serum Blood-bank to linear peptides of the protein M of SARS-CoV Urbani / Binding of Control serum LUMC to looped peptides of the protein M of SARS-CoV Urbani / Binding of Control Serum Blood-Bank to Looped peptides of the protein M of SARS-CoV Urbani: unit not given here
[3] = tested on: rabbit serum obtained by immunizing a rabbit with the SARS-CoV strain Frankfurt 1; format: binding; set-up: Binding of a rabbit serum to linear peptides / Binding of a rabbit serum to looped peptides / Rabbit serum linear peptides / Rabbit serum looped peptides / Binding of a rabbit serum to linear peptides of protein N of SARS-CoV Urbani (Rabbit serum linear peptides) / Binding of a rabbit serum to looped/cyclic peptides of protein N of SARS-CoV Urbani (Rabbit serum looped peptides): unit not given here

NLDVIISSIVRQLFK
Binding of serum 1a to linear peptides of protein X3 of SARS-CoV Urbani [1]: 0.7 | Binding of serum 1a to looped/cyclic peptides of protein X3 of SARS-CoV Urbani [1]: 0.5 | Binding of serum 1b to linear peptides of protein X3 of SARS-CoV Urbani [1]: 0.2 | Binding of serum 1b to looped/cyclic peptides of protein X3 of SARS-CoV Urbani [1]: 0.4 | Binding of serum 2 to linear peptides of protein X3 of SARS-CoV Urbani [1]: 0.4 | Binding of serum 2 to looped/cyclic peptides of protein X3 of SARS-CoV Urbani [1]: 0.5 | Binding of serum 6 to linear peptides of protein X3 of SARS-CoV Urbani [1]: 0.6 | Binding of serum 6 to looped/cyclic peptides of protein X3 of SARS-CoV Urbani [1]: 0.8 | Binding of serum 37 to linear peptides of protein X3 of SARS-CoV Urbani [1]: 0.6 | Binding of serum 37 to looped/cyclic peptides of protein X3 of SARS-CoV Urbani [1]: 0.5 | Binding of serum 62 to linear peptides of protein X3 of SARS-CoV Urbani [1]: 0.6 | Binding of serum 62 to looped/cyclic peptides of protein X3 of SARS-CoV Urbani [1]: 0.4 | Binding of serum London to linear peptides of protein X3 of SARS-CoV Urbani [1]: 0.7 | Binding of serum London to looped/cyclic peptides of protein X3 of SARS-CoV Urbani [1]: 1.8 | Binding of serum SARS-green to linear peptides of protein X3 of SARS-CoV Urbani [1]: 0.3 | Binding of serum SARS-green to looped/cyclic peptides of protein X3 of SARS-CoV Urbani [1]: 0.2 | Binding of serum SARS-yellow to linear peptides of protein X3 of SARS-CoV Urbani [1]: 0.3 | Binding of serum SARS-yellow to looped/cyclic peptides of protein X3 of SARS-CoV Urbani [1]: 0.6 | Binding of Control Serum Blood-Bank to Looped peptides of the protein X3 of SARS-CoV Urbani [2]: 0.8 | Binding of Control serum Blood-bank to linear peptides of the protein X3 of SARS-CoV Urbani [2]: 0.8 | Binding of Control serum LUMC to linear peptides of the protein X3 of SARS-CoV Urbani [2]: 0.6 | Binding of Control serum LUMC to looped peptides of the protein X3 of SARS-CoV Urbani [2]: 0.8 | Rabbit serum linear peptides [3]: 0.3 | Rabbit serum looped peptides [3]: 0.2

RCDIKDLPKEITVAT
Binding of serum 1a to linear peptides of protein M of SARS-CoV Urbani [1]: 0.7 | Binding of serum 1a to looped/cyclic peptides of protein M of SARS-CoV Urbani [1]: 0.6 | Binding of serum 1b to linear peptides of protein M of SARS-CoV Urbani [1]: 0.5 | Binding of serum 1b to looped/cyclic peptides of protein M of SARS-CoV Urbani [1]: 0.4 | Binding of serum 2 to linear peptides of protein M of SARS-CoV Urbani [1]: 0.5 | Binding of serum 2 to looped/cyclic peptides of protein M of SARS-CoV Urbani [1]: 0.6 | Binding of serum 6 to linear peptides of protein M of SARS-CoV Urbani [1]: 0.3 | Binding of serum 6 to looped/cyclic peptides of protein M of SARS-CoV Urbani [1]: 0.6 | Binding of serum 37 to linear peptides of protein M of SARS-CoV Urbani [1]: 0.5 | Binding of serum 37 to looped/cyclic peptides of protein M of SARS-CoV Urbani [1]: 0.6 | Binding of serum 62 to linear peptides of protein M of SARS-CoV Urbani [1]: 0.6 | Binding of serum 62 to looped/cyclic peptides of protein M of SARS-CoV Urbani [1]: 0.6 | Binding of serum London to linear peptides of protein M of SARS-CoV Urbani [1]: 0.3 | Binding of serum London to looped/cyclic peptides of protein M of SARS-CoV Urbani [1]: 0.2 | Binding of serum SARS-green to linear peptides of protein M of SARS-CoV Urbani [1]: 0.5 | Binding of serum SARS-green to looped/cyclic peptides of protein M of SARS-CoV Urbani [1]: 0.4 | Binding of serum SARS-yellow to linear peptides of protein M of SARS-CoV Urbani [1]: 0.2 | Binding of serum SARS-yellow to looped/cyclic peptides of protein M of SARS-CoV Urbani [1]: 0.7 | Binding of Control Serum Blood-Bank to Looped peptides of the protein M of SARS-CoV Urbani [2]: 0.6 | Binding of Control serum Blood-bank to linear peptides of the protein M of SARS-CoV Urbani [2]: 0.7 | Binding of Control serum LUMC to linear peptides of the protein M of SARS-CoV Urbani [2]: 0.5 | Binding of Control serum LUMC to looped peptides of the protein M of SARS-CoV Urbani [2]: 0.7 | Rabbit serum linear peptides [3]: 0.0 | Rabbit serum looped peptides [3]: 0.3

KRWQLALYKGFQFIC
Binding of serum 1a to linear peptides of protein X1 of SARS-CoV Urbani [1]: 0.6 | Binding of serum 1a to looped/cyclic peptide (PEPSCAN-ELISA) [1]: 0.6 | Binding of serum 1b to linear peptides of protein X1 of SARS-CoV Urbani [1]: 0.5 | Binding of serum 1b to looped/cyclic peptide (PEPSCAN-ELISA) [1]: 0.4 | Binding of serum 2 to linear peptides of protein X1 of SARS-CoV Urbani [1]: 0.5 | Binding of serum 2 to looped/cyclic peptide (PEPSCAN-ELISA) [1]: 0.5 | Binding of serum 6 to linear peptides of protein X1 of SARS-CoV Urbani [1]: 0.6 | Binding of serum 6 to looped/cyclic peptide (PEPSCAN-ELISA) [1]: 0.8 | Binding of serum 37 to linear peptides of protein X1 of SARS-CoV Urbani [1]: 0.6 | Binding of serum 37 to looped/cyclic peptide (PEPSCAN-ELISA) [1]: 0.6 | Binding of serum 62 to linear peptides of protein X1 of SARS-CoV Urbani [1]: 0.5 | Binding of serum 62 to looped/cyclic peptide (PEPSCAN-ELISA) [1]: 0.6 | Binding of serum London to linear peptides of protein X1 of SARS-CoV Urbani [1]: 0.2 | Binding of serum London to looped/cyclic peptide (PEPSCAN-ELISA) [1]: 1.1 | Binding of serum SARS-green to linear peptides of protein X1 of SARS-CoV Urbani [1]: 0.1 | Binding of serum SARS-green to looped/cyclic peptide (PEPSCAN-ELISA) [1]: 0.3 | Binding of serum SARS-yellow to linear peptides of protein X1 of SARS-CoV Urbani [1]: 0.2 | Binding of serum SARS-yellow to looped/cyclic peptide (PEPSCAN-ELISA) [1]: 0.5 | Binding of Control Serum Blood-Bank to Looped peptides [2]: 0.7 | Binding of Control serum Blood-bank to linear peptides [2]: 0.6 | Binding of Control serum LUMC to linear peptides [2]: 0.5 | Binding of Control serum LUMC to looped peptides [2]: 0.7 | Binding of a rabbit serum to linear peptides [3]: 0.1 | Binding of a rabbit serum to looped peptides [3]: 0.8
